# In US9284318B2, “Protein kinase inhibitors” (Pharmascience, Inc., priority 2011, dated 2016):
# pEC50, pIC50: −log10 of the molar value.
# Legend:
# [1] = system: 216 other kinases; experiment: Kinase Profiler Service Assay, selectivity panel; assay type: biochemical; settings: at 300 nM
# Experimental: (§1) Selected kinase binding affinities were determined using Kinase Profiler™ Service Assay Protocols (Millipore, V53.0).
# [2] = biological target: T1, recombinant human colony stimulating factor 1 receptor (FMS) (Homo sapiens, UniProt P07333); experiment: Biochemical cFMS (CSF1R) fluorescence polarization kinase assay; settings: 10 μM ATP, 100 μM substrate, 60 minutes
# T1 construct: containing the catalytic domain (amino acids 538-910); His tag; purchased Invitrogen; host or cells: insect cells
# T1 sequence (P07333 538-910): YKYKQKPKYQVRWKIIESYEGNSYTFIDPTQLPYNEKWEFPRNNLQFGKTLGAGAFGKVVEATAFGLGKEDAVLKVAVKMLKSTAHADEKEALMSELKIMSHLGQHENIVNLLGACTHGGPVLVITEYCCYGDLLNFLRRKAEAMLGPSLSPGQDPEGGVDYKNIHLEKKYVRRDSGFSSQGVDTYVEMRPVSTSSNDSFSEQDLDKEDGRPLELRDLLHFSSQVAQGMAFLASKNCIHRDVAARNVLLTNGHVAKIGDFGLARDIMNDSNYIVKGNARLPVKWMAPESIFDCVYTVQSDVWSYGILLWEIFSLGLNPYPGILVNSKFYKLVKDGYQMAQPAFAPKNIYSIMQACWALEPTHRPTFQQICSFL
# Experimental: Biochemical cFMS (CSF1R) Assay:
# Fluorescence polarization-based kinase biochemical assays were performed in 384 well-plate format using histidine tagged recombinant human colony stimulating factor 1 receptor (FMS) supplied from Invitrogen™ (containing the catalytic domain (amino acids 538-910), expressed in insect cells and activated in vitro via auto phosphorylation) and a modified protocol of the KinEASE™ FP Fluorescein Green Assay supplied from Millipore™.
# Kinase reactions were performed in 384 well plate format at room temperature for 60 minutes in presence of 100 μM substrate, 10 μM ATP and variable test article concentrations. The reaction was stopped with EDTA/KinEASE™ detection reagents and the polarization measured on a Tecan 500 instrument. From the dose-response curve obtained, the IC50 was estimated using Graph pad Prisms® using a non linear fit curve.
# [3] = biological target: T2, cFMS(h) (Homo sapiens, UniProt P07333); experiment: Kinase Profiler Service Assay, cFMS; assay type: biochemical; settings: at 100 nM
# T2 construct: purchased Millipore (Kinase Profiler Service)
# Experimental: as §1
# [4] = system: MV4-11 cells; experiment: Human MV4-11 biphenotypic B myelomonocytic leukemia cell survival assay; assay type: cell-based; settings: cell survival at 72h, Cell Titer-Glo
# Experimental: Human MV4-11 Biphenotypic B Myelomonocytic Leukemia Cell Survival Assay
# Biphenotypic B myelomonocytic leukemia MV4-11 cells (ATCC CRL-9591) were cultured in suspension at 37° C., 5% CO2 in complete medium (RPMI supplemented with 10% FBS, 1% penicillin/streptomycin). One day prior to treatment, cells per seeded in 96-well plates at 8000 cells/well in complete medium. The following day, triplicate wells were treated with compound curves of 100, 1000 or 10,000 nM starting concentration according to compound potency. Cell survival was measured 72h later by Cell Titer-Glo Luminescent Assay (Promega). Luminescence was read using a Tecan Infinite F200 microplate reader. EC50 values (50% survival in the presence of compound as compared to vehicle treated controls) were calculated from non-linear fit dose response compound curves using CambridgeSoft BioAssay software (Perkin Elmer).
# [5] = system: M-NFS-60 M-CSF-dependent myeloid leukemia cells; experiment: Murine M-CSF-dependent M-NFS-60 cell survival assay; assay type: cell-based; settings: Mus musculus; cell survival at 72 hours, 20 ng/ml M-CSF, Cell Titer-Glo
# Experimental: Cellular Assays: Murine M-CSF-Dependent M-NFS-60 Cell Survival Assay
# Murine M-NFS-60 M-CSF-dependent myeloid leukemia cells were purchased from ATCC (CRL-1838). Cells were routinely cultured at 37° C., 5% CO2 in complete medium (RPMI supplemented with 10% FBS, 1% penicillin/streptomycin, 50 uM beta mercaptoethanol) containing 30 ng/ml recombinant murine M-CSF (Peprotech 315-02). For survival assays, cells were transferred to depleted medium (complete medium depleted of M-CSF) for 24 hours prior to initiation of each experiment. M-CSF-starved cells were harvested and re-suspended in complete medium containing 20 ng/ml M-CSF. Cells were seeded at 25,000 cells/well in 96-well plates and incubated for 1 hour at 37° C., 5% CO2. Cells were treated with 1 uM or 10 uM compound curves in triplicate and cell survival was measured 72 hours later by Cell Titer-Glo Luminescent Assay (Promega). Luminescence was read using a Tecan Infinite F200 microplate reader. EC50 values (50% survival in the presence of compound as compared to vehicle treated controls) were calculated from non-linear fit dose response compound curves using GraphPad Prism Software.
# [6] = biological target: T3, KDR(h) (Homo sapiens, UniProt P35968); experiment: Kinase Profiler Service Assay, KDR; assay type: biochemical; settings: at 100 nM
# T3 construct: purchased Millipore (Kinase Profiler Service)
# Experimental: as §1
# [7] = biological target: T4, Flt3 (h) (Homo sapiens, UniProt P36888); experiment: Kinase Profiler Service Assay, Flt3; assay type: biochemical; settings: at 100 nM
# T4 construct: purchased Millipore (Kinase Profiler Service)
# T4 sequence (P36888 27-993): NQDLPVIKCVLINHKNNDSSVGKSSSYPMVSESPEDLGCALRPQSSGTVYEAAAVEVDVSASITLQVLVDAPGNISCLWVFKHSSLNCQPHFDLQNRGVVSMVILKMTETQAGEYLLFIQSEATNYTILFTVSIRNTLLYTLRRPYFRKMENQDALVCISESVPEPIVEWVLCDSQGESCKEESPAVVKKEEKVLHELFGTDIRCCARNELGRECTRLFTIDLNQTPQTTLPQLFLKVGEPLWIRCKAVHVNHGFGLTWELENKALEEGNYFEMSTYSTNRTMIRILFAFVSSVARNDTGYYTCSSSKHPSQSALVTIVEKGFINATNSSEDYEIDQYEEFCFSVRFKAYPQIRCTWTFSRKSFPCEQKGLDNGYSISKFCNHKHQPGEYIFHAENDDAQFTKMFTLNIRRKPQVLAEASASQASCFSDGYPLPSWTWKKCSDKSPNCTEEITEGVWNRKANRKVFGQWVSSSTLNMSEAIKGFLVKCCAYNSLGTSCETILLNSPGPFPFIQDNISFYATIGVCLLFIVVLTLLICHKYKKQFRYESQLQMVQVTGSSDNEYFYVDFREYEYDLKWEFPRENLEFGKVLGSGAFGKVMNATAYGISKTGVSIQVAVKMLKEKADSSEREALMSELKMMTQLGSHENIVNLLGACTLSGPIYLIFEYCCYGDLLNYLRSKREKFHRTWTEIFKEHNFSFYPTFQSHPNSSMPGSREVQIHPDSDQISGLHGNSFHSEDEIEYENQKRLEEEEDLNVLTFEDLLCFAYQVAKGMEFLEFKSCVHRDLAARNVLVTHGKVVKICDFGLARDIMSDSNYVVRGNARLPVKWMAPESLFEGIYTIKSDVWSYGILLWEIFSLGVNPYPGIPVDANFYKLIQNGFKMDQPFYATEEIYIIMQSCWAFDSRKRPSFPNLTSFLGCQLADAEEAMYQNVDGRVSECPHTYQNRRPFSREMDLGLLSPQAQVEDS
# Experimental: as §1
# [8] = biological target: T5, EphA2 (Homo sapiens, UniProt P29317); experiment: Kinase Profiler Service Assay, EphA2; assay type: biochemical; settings: at 100 nM
# T5 construct: purchased Millipore (Kinase Profiler Service)
# Experimental: as §1
# [9] = biological target: T6, FGFR1 (Homo sapiens, UniProt P11362); experiment: Kinase Profiler Service Assay, FGFR1; assay type: biochemical; settings: at 100 nM
# T6 construct: purchased Millipore (Kinase Profiler Service)
# Experimental: as §1
# [10] = biological target: T7, PDGFR-b(h) (Homo sapiens, UniProt P09619); experiment: Kinase Profiler Service Assay, PDGFR-b; assay type: biochemical; settings: at 100 nM
# T7 construct: purchased Millipore (Kinase Profiler Service)
# Experimental: as §1
# [11] = biological target: T8, FLT4 (Homo sapiens, UniProt P35916); experiment: Kinase Profiler Service Assay, FLT4; assay type: biochemical; settings: at 100 nM
# T8 construct: purchased Millipore (Kinase Profiler Service)
# Experimental: as §1
# [12] = biological target: T9, Tie2 (Homo sapiens, UniProt Q02763); experiment: Kinase Profiler Service Assay, Tie2; assay type: biochemical; settings: at 100 nM
# T9 construct: purchased Millipore (Kinase Profiler Service)
# Experimental: as §1
# [13] = biological target: T10, Aurora-B(h) (Homo sapiens, UniProt Q96GD4); experiment: Kinase Profiler Service Assay, Aurora-B; assay type: biochemical; settings: at 100 nM
# T10 construct: purchased Millipore (Kinase Profiler Service)
# Experimental: as §1
# T6 sequence (P11362 22-822): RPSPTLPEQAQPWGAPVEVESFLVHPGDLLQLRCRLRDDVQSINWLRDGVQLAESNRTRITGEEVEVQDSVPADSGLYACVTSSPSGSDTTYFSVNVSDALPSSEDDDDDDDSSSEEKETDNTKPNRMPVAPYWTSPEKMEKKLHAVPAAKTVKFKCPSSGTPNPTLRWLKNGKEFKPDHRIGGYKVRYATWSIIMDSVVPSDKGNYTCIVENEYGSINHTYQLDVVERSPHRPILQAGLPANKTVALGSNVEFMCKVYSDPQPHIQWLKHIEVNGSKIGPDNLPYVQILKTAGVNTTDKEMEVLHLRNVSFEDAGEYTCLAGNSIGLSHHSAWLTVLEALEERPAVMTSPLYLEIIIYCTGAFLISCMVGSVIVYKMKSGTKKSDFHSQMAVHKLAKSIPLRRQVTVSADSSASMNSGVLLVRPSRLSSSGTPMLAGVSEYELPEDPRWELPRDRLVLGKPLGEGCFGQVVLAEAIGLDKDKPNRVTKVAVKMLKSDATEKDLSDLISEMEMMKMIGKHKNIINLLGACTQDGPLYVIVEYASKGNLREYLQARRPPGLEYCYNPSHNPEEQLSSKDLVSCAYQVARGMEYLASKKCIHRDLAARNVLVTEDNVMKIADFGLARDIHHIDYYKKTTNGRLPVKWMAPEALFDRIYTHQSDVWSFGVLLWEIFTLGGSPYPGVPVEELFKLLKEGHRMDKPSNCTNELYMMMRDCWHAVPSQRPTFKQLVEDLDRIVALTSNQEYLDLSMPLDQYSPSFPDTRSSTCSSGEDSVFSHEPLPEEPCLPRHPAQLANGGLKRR
# T2 sequence (P07333 20-972): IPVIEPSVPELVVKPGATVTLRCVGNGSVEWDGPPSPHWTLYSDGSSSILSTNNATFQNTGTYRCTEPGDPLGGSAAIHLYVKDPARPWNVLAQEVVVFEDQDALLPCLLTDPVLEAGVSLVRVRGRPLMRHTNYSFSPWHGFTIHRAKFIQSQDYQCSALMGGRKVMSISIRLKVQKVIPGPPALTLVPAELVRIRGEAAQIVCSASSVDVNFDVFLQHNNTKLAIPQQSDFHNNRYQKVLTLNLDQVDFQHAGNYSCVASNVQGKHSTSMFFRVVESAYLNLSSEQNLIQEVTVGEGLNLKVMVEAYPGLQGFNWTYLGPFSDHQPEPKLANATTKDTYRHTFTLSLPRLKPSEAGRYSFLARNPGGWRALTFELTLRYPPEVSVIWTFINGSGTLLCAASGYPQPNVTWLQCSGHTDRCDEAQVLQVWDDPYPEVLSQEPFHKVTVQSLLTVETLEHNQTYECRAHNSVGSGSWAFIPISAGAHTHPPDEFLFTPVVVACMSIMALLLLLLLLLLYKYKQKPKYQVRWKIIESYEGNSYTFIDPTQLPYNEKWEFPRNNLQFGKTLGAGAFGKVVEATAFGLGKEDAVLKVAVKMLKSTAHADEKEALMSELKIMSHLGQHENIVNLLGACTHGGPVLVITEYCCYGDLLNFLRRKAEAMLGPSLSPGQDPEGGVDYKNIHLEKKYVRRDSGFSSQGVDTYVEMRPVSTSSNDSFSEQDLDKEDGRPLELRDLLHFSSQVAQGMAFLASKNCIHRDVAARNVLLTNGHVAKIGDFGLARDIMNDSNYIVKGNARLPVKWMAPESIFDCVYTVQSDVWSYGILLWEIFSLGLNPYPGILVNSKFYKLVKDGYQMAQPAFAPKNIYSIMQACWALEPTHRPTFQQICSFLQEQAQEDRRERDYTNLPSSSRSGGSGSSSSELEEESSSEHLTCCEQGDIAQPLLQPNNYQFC
# T3 sequence (P35968 20-1356): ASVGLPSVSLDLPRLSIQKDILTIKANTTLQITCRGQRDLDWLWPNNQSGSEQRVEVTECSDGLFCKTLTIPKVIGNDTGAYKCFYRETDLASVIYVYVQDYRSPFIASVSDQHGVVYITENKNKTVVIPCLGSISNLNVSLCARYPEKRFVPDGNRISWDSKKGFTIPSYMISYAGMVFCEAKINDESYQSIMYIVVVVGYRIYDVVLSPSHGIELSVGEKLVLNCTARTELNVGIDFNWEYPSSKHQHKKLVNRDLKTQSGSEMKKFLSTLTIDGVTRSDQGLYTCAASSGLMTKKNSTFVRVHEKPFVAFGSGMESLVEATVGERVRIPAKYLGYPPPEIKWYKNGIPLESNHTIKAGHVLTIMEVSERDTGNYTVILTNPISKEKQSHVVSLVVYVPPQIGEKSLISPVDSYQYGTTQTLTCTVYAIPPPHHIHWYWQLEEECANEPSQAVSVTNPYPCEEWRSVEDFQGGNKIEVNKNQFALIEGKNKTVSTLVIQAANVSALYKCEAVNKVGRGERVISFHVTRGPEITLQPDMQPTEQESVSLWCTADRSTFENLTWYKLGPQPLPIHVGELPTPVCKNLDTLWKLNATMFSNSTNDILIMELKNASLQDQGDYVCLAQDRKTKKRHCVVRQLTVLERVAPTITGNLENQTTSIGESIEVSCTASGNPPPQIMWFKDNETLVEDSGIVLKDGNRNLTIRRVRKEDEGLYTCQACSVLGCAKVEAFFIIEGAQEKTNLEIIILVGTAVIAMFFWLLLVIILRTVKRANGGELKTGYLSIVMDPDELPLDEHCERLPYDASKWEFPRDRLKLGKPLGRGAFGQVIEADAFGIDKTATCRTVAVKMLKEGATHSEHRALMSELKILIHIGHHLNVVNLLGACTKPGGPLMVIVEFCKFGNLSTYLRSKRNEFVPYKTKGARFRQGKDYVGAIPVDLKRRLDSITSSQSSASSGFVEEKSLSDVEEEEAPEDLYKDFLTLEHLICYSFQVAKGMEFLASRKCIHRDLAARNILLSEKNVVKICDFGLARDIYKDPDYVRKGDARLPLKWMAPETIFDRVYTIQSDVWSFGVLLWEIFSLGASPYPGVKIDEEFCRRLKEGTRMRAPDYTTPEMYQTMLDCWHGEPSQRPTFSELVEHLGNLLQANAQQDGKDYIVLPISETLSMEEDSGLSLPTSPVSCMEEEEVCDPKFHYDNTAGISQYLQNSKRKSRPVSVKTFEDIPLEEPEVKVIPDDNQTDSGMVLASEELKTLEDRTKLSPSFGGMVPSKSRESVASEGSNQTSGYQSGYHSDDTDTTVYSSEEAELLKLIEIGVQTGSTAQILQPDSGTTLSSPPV
# T10 sequence (Q96GD4 whole entry): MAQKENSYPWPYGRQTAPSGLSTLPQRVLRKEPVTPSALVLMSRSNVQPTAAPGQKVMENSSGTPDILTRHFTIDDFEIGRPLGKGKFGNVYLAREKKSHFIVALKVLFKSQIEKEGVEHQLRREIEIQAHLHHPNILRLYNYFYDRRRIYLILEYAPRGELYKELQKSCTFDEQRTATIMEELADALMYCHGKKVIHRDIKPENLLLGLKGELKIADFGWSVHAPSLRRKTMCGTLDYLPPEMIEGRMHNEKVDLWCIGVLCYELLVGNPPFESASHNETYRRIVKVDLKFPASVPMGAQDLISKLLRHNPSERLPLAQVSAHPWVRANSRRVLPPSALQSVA
# T5 sequence (P29317 24-976): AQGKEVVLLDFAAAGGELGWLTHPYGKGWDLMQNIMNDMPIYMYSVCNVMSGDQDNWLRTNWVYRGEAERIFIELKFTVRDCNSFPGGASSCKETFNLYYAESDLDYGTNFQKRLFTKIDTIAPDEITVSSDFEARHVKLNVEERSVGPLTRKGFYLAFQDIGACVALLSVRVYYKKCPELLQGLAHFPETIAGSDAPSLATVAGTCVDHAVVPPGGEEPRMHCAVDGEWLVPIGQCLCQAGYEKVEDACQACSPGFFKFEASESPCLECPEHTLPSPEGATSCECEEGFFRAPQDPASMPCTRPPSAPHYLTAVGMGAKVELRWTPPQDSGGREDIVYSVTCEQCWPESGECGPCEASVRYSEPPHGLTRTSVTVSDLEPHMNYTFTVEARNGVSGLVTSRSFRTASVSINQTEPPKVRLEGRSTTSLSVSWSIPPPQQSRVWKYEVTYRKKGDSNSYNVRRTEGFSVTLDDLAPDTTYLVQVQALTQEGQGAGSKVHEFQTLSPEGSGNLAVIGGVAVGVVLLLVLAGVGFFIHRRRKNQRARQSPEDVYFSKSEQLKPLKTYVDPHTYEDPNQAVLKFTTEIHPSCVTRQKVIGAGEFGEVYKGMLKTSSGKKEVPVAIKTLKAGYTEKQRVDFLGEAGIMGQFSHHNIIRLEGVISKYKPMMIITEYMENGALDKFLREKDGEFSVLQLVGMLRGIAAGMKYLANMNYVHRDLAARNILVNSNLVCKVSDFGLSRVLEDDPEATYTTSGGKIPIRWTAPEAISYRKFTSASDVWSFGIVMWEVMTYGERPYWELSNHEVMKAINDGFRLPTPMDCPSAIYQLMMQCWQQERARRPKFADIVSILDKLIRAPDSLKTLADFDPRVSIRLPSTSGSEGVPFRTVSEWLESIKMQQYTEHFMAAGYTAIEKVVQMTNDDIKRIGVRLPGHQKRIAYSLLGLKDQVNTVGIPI
pIC50 [2],Compound,pEC50 [4],pEC50 [5],further results
6.00 to 7.00,Nc1ncnc2c3c(n(-c4ccc(NC(=O)Nc5ccc(F)cc5)cc4)c12)COC3 [Compound 33],6.00 to 7.00,6.00 to 7.00,–
6.00 to 7.00,Nc1ncnc2c3c(n(-c4ccc(NC(=O)Nc5ccc(F)cc5F)cc4)c12)CCC3 [Compound 50],> 7.00,> 7.00,–
6.00 to 7.00,Nc1ncnc2c3c(n(-c4ccc(NC(=O)Nc5ccccc5C(F)(F)F)cc4)c12)CCC3 [Compound 23],< 6.00,6.00 to 7.00,–
> 7.00,COc1ccc(NC(=O)Nc2ccc(-n3c4c(c5ncnc(N)c53)CCC4)cc2)c(F)c1 [Compound 54],> 7.00,> 7.00,–
6.00 to 7.00,Nc1ncnc2c3c(n(-c4ccc(NC(=O)Nc5cc(C(F)(F)F)ccc5Cl)cc4)c12)CCC3 [Compound 69],> 7.00,6.00 to 7.00,–
6.00 to 7.00,Nc1ncnc2c3c(n(-c4ccc(NC(=O)Nc5cccc(C(F)(F)F)c5)c(F)c4)c12)CCC3 [Compound 63],> 7.00,> 7.00,–

# Further lines, the molecule ahead of its results:
Compound,pIC50 [2],pEC50 [4],pEC50 [5],further results
Nc1ncnc2c3c(n(-c4ccc(NC(=O)Nc5cc(C(F)(F)F)ccc5F)cc4)c12)CCC3 [Compound 44],6.00 to 7.00,> 7.00,6.00 to 7.00,inhibition of 216 other kinases (selectivity) [1]: ≤ 20%; inhibition of cFMS [3]: inhibits; inhibition of KDR [6]: inhibits; inhibition of Flt3 [7]: inhibits; inhibition of EphA2 [8]: inhibits; inhibition of FGFR1 [9]: inhibits
Nc1ncnc2c3c(n(-c4ccc(NC(=O)Nc5ccc(F)cc5)cc4)c12)CCC3 [Compound 14],6.00 to 7.00,> 7.00,> 7.00,inhibition of PDGFR-b [10]: inhibits; inhibition of cFMS [3]: inhibits; inhibition of FLT4 [11]: inhibits; inhibition of Tie2 [12]: inhibits; inhibition of KDR [6]: inhibits; inhibition of Aurora-B [13]: inhibits; inhibition of Flt3 [7]: inhibits; inhibition of FGFR1 [9]: inhibits
N#Cc1cccc(NC(=O)Nc2ccc(-n3c4c(c5ncnc(N)c53)CCC4)cc2)c1 [Compound 66],6.00 to 7.00,> 7.00,6.00 to 7.00,–
Nc1ncnc2c3c(n(-c4ccc(NC(=O)Nc5ccccc5OC(F)F)cc4)c12)CCC3 [Compound 68],6.00 to 7.00,> 7.00,6.00 to 7.00,–
Nc1ncnc2c3c(n(-c4ccc(NC(=O)Nc5ccc(OC(F)F)cc5)cc4)c12)CCC3 [Compound 27],> 7.00,> 7.00,> 7.00,–
Nc1ncnc2c3c(n(-c4ccc(NC(=O)Nc5ccc(Cl)c(C(F)(F)F)c5)cc4)c12)CCC3 [Compound 59],6.00 to 7.00,> 7.00,6.00 to 7.00,–
Cc1ccc(F)c(NC(=O)Nc2ccc(-n3c4c(c5ncnc(N)c53)COC4)cc2)c1 [Compound 47],6.00 to 7.00,> 7.00,> 7.00,–
Cc1ccc(F)c(NC(=O)Nc2ccc(-n3c4c(c5ncnc(N)c53)CCC4)cc2)c1 [Compound 43],> 7.00,> 7.00,> 7.00,–
Nc1ncnc2c3c(n(-c4ccc(NC(=O)Nc5cccc(F)c5)cc4)c12)CCC3 [Compound 19],> 7.00,6.00 to 7.00,> 7.00,–
Nc1ncnc2c3c(n(-c4ccc(NC(=O)NC5CCCCC5)cc4)c12)CCC3 [Compound 41],6.00 to 7.00,> 7.00,6.00 to 7.00,–
COc1ccccc1NC(=O)Nc1ccc(-n2c3c(c4ncnc(N)c42)CCC3)cc1 [Compound 16],6.00 to 7.00,> 7.00,> 7.00,–
COc1cccc(NC(=O)Nc2ccc(-n3c4c(c5ncnc(N)c53)CCC4)cc2)c1 [Compound 11],> 7.00,> 7.00,> 7.00,–
